Experiments:
BMRPA1 cells [1] = experiment: NNK exposure: effects on BMRPA1 morphology; assay type: cell-based, rat; conditions: for cytotoxic changes: one 16 hour exposure
Experimental: All preparations of the carcinogen-containing media were made in a separate laboratory within a NCI-designed and certified chemical hood using prescribed protective measures. 4-(N-nitrosmethylamino)-1-(3-pyridyl)-1-butanone (NNK, American Health Foundation, N.Y.) was prepared as a stock solution of 10 mg NNK in PBS and added to FBS-free cRPMI to make final concentrations of 100, 50, 10, 5, and 1 μg/mil. BMRPA1 cells at passage 36 (p36) were seeded at 10^5/60 mm TCDs and allowed to grow for 6 d. At this time the medium was removed, and the cells were washed 2× with prewarmed (37° C.), FBS-free cRPMI before they were treated with FBS-free cRPMI (4 ml/TCD) containing the different concentrations of NNK. A 6th set of TCDs containing BMRPA1 cells was incubated in FBS-free cRPMI without NNK and was used as controls. The eight TCDs used for each of the six sets of different culture conditions were returned to the 37° C. and 95% air-5% CO2 incubator. After 16 h, the NNK-containing medium was removed from all TCDs and the cells were washed 3× with PBS followed by addition of fresh cRPMI-10% FBS (4 ml/TCD), and the incubation continued. Control cultures without NNK were processed in parallel. The cells were fed every 2 d by replacing ½ of the spent medium with fresh cRPMI-10% FBS. At full confluency the cells were collected from all TCDs, the cells in each group were pooled, and passaged at 2×10^4 into fresh TCDs.
With the purpose of determining whether such changes are induced by a single exposure to NNK and at relatively small NNK concentrations, BMRPA1 cells were exposed for one 16 hour period to serum free medium containing 100, 50, 10, 5, and 1 μg NNK/mL. […] Furthermore, the gradual pace of these changes at 1 μg/mL allows a passage by passage study of both early and late events in the process of NNK-induced transformation. Thus, the results presented below were obtained with BMRPA1 cells exposed once for 16 h to 1 μg NNK/mL FBS-free medium.

BMRPA1 cells [2] = experiment: Anchorage independent colony formation on agar; assay type: cell-based, rat; conditions: NNK-treated BMRPA1 cells; days after seeding 9; 30 sequential 1 mm^2 fields, average of 5 TCFs ± SEM
Experimental: Aliquots of 4 ml of 0.5% agar-medium mixture (agar was autoclaved in 64 mL H2O, cooled in a water bath to 50° C., and added to 15 mL 5× cRPMI, 19 mL FBS and 1 mL P/S) were poured into 25 cm^2 TCFs and allowed to harden overnight at 4° C. Prior to plating the cells, the flasks were placed in the COT-Air incubator for up to 5 h at 37° C. to facilitate equilibration of pH and temperature. Cells were collected by Trypsin-EDTA, 0.1 mL, of cell suspension (40000/mL cells in cRPMI) was dispersed carefully over the agar surface of each flask and the cultures were returned to the 37° C. incubator with […]-5% CO2. After 24 h, the agar-coated TCFs were inverted to allow drainage of excess medium. The cultures were examined microscopically after 9 d and 14 d for growth of colonies using a Zeiss inverted microscope.
The ability of the cloned BMRPA.1NNK and untreated BMRPA1 cells to grow on agar was examined by dispersing cells at low density onto soft agar (see Example 1).

Nu/Nu mice = experiment: Tumorigenicity in Nu/Nu mice; assay type: in vivo, mouse; conditions: 10^7 cloned BMRPA1.NNK cells injected s.c.
Experimental: Nu/Nu mice (7 wks of age) were obtained from Harlan laboratories (Indianapolis, Ind.). The cells used for injection were released by Trypsin-EDTA, washed in cRPMI, and resuspended in PBS at 10^8 cells/mL. Each mouse tested was injected subcutaneously (s.c.) with 0.1 ml of this cell suspension. The animals were inspected for tumor development daily during the first 4 weeks, and thereafter at weekly intervals. Small pieces of the tumors (1-2 mm.) were cut from the core of the tumors and placed in 4% pafaformaldehyde overnight at 4 C. The tissue was then washed in PBS, and placed in 30% sucrose for another 24 h. Sections of tumor tissue frozen in Lipshaw embedding matrix (Pittsburgh, Pa.) were made with a Jung cryostat (Leica), placed on gelatin coated slides, and stored at −20 C. H&E staining was done according to standard procedures.
Cells growing on agar often have the ability to grow as tumors in Nu/Nu mice (Shin et al., 1975; Colburn et al., 1978). The ability of cells to grow in Nu/Nu mice as tumors is believed to be a strong indication of malignant transformation (Chung, 1986). Consequently, 10^7 cloned, live BMRPA1.NNK cells were injected subcutaneously (s.c.) in the posterior flank region of Nu/Nu mice. Another group of mice was injected s.c. under similar conditions with untransformed BMRPA1 cells. […]

BMRPA1 cells [3] = experiment: BrdU incorporation (FACS); assay type: cell-based, rat; conditions: NNK-treated vs untransformed BMRPA1 cells
Experimental: Cells (5×10^4) were plated in 60 mm TCD, and allowed to grow in cRPMI-10% FBS. […] Briefly, 10^6 trypsin-EDTA released cells were washed twice in PBS-1% BSA, fixed in 70% ethanol for 30 min, and resuspended in RNAase A (0.1 mg/mL) for 30 min at 37° C. After washing the cells, their DNA was denatured with 2N HCl/Triton X-100 for 30 min, and neutralized with 0.1 M Na2B4O7.10H2O, pH 8.5. The cells were then washed in PBS-1% BSA with 0.5% Tween 20, and resuspended in 50 uL of 0.5% Tween in PBS-1% BSA solution with 20 uL of FITC-AntiBrdU antibody. After 45 min at 37° C., the cells were washed, resuspended in 1 mL of Na Citrate buffer containing Propidium Iodide (0.005 mg/mL) and RNAase A (0.1 mg/mL). Fluorescent activated cell sorting or flow cytometry (FACS) analysis to detect the incorporated BrdU and PI staining was performed by using a FACScan analyzer from Becton Dickinson Co. equipped with an Argon ion laser using excitation wavelength of 488 nm. Data analysis was performed using the LYSYS II program.
The measurement of BrdU incorporation in RNAase treated cells is routinely used to assess DNA synthesis during the S phase of proliferating cells (Alberts B., Johnson, A., Lewis, J., Raff, M., Roberts, K., Walter, P., 2002, Molecular Biology of the Cell. Garland Science, Taylor and Francis, 4th ed., NY). […]

BMRPA1 cells [4] = experiment: Cell growth at reduced serum (crystal violet assay); assay type: cell-based, rat; conditions: NNK-transformed vs untreated BMRPA1 cells, 12 days
Experimental: To measure cell growth at 10% FBS, cells were seeded at 5×10^4 cell/60 mm TCD containing 4 ml of cRPMI-10% FBS. Every 3 d, triplicate TCDs were removed for each cell line under study, the cells were released with trypsin-EDTA, and counted in the presence of trypan blue. To assess the effect of cRPMI containing reduced FBS concentrations on cell growth, equal numbers (1.5×10^4 cell/ml/well) of NNK-treated and untreated BMRPA1 cells were seeded in triplicate wells of 24 well TCDs. The cells were allowed to adhere overnight in cRPMI 10% FBS, washed with PBS, and reincubated with cRPMI containing the indicated % FBS. Cell growth was evaluated by a modification of the crystal violet relative proliferation assay (Serrano, 1997). Briefly, the cells were washed with PBS, fixed in 10% buffered formalin followed by rinsing with distilled water. The cells were then stained with 0.1% Crystal Violet for 30 min at room temperature (RT), washed with dH2O, and dried. The cell-associated dye was extracted with 1 ml 10% acetic acid, aliquots were diluted 1:2 with dH2O, and transferred to 96-well microtiter plates for OD600nm measurements. The cell growth was calculated relative to the OD600nm values read at 24 h. […]

SMILES: CN(CCCC(=O)c1cccnc1)N=O [NNK, 4-(methyl-nitrosamino)-1-(3-pyridyl)-1-butanone]
- phenotypical changes (neoplastic transformation) (BMRPA1 cells [1]; 1 μg/ml, slower rate, over several weeks): phenotypical changes characteristic of neoplastic transformation
- cytotoxic changes (BMRPA1 cells [1]; 5, and 1 μg NNK/mL): considerably less
- phenotypical changes (neoplastic transformation) (BMRPA1 cells [1]; 100, 50, 10 μg NNK/ml, within a week): phenotypical changes indicative of neoplastic transformation
- cytotoxic changes (BMRPA1 cells [1]; larger concentrations (100, 50, 10 μg NNK/mL), serum free medium): cylotoxic changes
- # of colonies* formed <50 cells (BMRPA1 cells [2]): 14
- # of colonies* formed >50 cells (BMRPA1 cells [2]): 15.8 ± 2.5
- # of colonies* formed Total (BMRPA1 cells [2]): 17.3 ± 5.2
- # of mice with metastasis/# of mice tested (Nu/Nu mice): 1/6
- # of mice with tumor/# of mice tested (Nu/Nu mice): 3/6
- proliferative changes (BrdU incorporation) (BMRPA1 cells [3]): permanent hyperproliferative changes
- cell growth at 1%, 5%, and 10% FBS (BMRPA1 cells [4]): selective growth advantage

— patent publication US20170022288A9, “PANCREATIC CANCER ASSOCIATED ANTIGEN, ANTIBODY THERETO, AND DIAGNOSTIC AND TREATMENT METHODS” (priority 2003, published 2017)
